{"source": "ChEMBL document CHEMBL5653615", "about": "(J Biol Chem, 2013)", "key": {"[1]": {"assay": "Inhibition of tri-phosphorylated human Insulin receptor (978 to 1283 residues) C981S mutant kinase domain expressed in baculovirus infected Sf9 cells incubated for 1 hr by [gamma-33P]ATP assay"}, "[2]": {"target": "Vascular endothelial growth factor receptor 2 (Homo sapiens) (UniProt P35968)", "assay": "Inhibition of human KDR at 18.6 nM by HotSpot assay relative to control"}, "[3]": {"target": "Vascular endothelial growth factor receptor 3 (Homo sapiens) (UniProt P35916)", "assay": "Inhibition of human FLT4 at 18.6 nM by HotSpot assay relative to control"}, "[4]": {"target": "Protein-tyrosine kinase 2-beta (Homo sapiens) (UniProt Q14289)", "assay": "Inhibition of human PYK2 at 18.6 nM by HotSpot assay relative to control"}, "[5]": {"target": "Serine/threonine-protein kinase 25 (Homo sapiens) (UniProt O00506)", "sequence (O00506 whole entry, looked up)": "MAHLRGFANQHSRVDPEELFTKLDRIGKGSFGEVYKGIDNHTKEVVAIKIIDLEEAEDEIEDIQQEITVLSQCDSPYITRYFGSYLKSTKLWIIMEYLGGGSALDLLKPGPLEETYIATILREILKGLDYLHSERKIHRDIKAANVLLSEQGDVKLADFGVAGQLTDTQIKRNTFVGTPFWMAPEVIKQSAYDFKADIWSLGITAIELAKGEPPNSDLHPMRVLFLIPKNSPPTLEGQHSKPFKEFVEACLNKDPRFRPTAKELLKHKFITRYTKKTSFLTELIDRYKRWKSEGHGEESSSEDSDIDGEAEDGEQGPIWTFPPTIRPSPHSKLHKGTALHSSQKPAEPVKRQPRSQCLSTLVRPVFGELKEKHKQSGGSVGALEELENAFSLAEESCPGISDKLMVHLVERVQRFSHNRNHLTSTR", "assay": "Inhibition of human YSK1 at 18.6 nM by HotSpot assay relative to control"}, "[6]": {"target": "Ribosomal protein S6 kinase alpha-2 (Homo sapiens) (UniProt Q15349)", "sequence (Q15349 whole entry)": "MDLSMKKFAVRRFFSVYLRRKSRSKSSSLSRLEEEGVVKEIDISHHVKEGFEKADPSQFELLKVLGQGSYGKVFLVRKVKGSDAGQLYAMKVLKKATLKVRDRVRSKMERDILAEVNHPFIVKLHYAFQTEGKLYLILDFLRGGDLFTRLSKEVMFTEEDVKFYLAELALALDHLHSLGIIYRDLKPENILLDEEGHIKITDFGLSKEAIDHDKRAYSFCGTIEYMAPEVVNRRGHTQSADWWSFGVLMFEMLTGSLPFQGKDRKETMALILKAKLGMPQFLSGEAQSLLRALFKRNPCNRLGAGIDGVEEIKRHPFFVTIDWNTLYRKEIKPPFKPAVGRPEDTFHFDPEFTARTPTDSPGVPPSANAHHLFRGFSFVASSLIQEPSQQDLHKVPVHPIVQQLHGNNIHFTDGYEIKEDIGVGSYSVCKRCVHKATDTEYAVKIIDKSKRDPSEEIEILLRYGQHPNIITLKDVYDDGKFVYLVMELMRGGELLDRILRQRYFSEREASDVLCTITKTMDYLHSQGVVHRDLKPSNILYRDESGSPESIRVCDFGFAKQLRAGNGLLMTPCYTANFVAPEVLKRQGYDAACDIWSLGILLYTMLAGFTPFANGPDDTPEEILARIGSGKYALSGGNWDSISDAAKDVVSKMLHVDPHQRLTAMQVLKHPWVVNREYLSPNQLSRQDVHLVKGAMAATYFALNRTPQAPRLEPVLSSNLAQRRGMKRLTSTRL", "assay": "Inhibition of human RSK3 at 18.6 nM by HotSpot assay relative to control"}, "[7]": {"target": "Dual specificity mitogen-activated protein kinase kinase 2 (Homo sapiens) (UniProt P36507)", "sequence (P36507 whole entry)": "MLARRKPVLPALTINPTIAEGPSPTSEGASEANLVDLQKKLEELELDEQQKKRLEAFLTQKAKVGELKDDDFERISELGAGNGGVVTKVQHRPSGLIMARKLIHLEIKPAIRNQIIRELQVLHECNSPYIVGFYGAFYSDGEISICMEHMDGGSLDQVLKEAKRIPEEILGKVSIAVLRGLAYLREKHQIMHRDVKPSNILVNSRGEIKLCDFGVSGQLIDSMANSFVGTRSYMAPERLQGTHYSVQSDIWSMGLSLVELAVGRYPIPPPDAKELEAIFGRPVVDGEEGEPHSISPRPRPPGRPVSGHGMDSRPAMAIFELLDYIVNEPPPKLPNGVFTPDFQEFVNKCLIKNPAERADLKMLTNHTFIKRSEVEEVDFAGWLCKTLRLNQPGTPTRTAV", "assay": "Inhibition of human MEK2 at 18.6 nM by HotSpot assay relative to control"}, "[8]": {"target": "Serine/threonine-protein kinase PLK2 (Homo sapiens) (UniProt Q9NYY3)", "assay": "Inhibition of human PLK2 at 18.6 nM by HotSpot assay relative to control"}, "[9]": {"target": "T1, Serine/threonine-protein kinase STK11 (Homo sapiens) (UniProt Q15831)", "T1 sequence (whole entry)": "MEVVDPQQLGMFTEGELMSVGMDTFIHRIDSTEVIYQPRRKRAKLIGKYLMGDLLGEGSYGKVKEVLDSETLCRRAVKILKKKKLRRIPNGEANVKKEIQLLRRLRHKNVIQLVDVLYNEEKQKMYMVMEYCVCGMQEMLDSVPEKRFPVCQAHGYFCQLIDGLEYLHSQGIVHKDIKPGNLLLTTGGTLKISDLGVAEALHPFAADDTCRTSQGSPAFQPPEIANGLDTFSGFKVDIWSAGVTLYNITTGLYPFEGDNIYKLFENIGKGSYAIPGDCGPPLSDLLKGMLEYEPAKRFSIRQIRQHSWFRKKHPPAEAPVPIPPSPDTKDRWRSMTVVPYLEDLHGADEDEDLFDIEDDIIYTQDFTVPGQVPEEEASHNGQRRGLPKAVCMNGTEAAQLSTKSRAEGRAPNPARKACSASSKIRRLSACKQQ", "assay": "Inhibition of human LKB1 at 1.82 nM by HotSpot assay relative to control"}, "[10]": {"target": "SRSF protein kinase 2 (Homo sapiens) (UniProt P78362)", "sequence (P78362 whole entry, looked up)": "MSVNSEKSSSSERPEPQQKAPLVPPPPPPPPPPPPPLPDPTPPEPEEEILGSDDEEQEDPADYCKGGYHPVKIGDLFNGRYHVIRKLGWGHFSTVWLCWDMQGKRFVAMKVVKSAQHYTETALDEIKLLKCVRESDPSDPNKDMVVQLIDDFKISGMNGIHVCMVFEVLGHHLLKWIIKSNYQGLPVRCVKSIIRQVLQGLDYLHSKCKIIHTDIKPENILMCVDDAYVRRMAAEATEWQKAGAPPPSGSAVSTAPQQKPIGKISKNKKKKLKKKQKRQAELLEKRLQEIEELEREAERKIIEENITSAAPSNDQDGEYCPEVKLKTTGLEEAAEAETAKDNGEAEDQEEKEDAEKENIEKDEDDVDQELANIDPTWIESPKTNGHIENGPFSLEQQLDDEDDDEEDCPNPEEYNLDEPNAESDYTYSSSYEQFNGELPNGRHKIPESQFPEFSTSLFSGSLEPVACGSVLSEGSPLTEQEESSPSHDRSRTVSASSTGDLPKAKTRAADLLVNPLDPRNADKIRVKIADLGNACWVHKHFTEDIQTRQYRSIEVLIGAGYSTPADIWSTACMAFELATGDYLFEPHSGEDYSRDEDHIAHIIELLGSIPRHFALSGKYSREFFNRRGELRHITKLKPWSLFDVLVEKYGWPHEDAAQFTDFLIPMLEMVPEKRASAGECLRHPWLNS", "assay": "Inhibition of human SRPK2 at 1.82 nM by HotSpot assay relative to control"}, "[11]": {"target": "Protein kinase C alpha type (Homo sapiens) (UniProt P17252)", "assay": "Inhibition of human PKCa at 1.82 nM by HotSpot assay relative to control"}, "[12]": {"target": "T2, Cytoplasmic tyrosine-protein kinase BMX (Homo sapiens) (UniProt P51813)", "T2 sequence (whole entry)": "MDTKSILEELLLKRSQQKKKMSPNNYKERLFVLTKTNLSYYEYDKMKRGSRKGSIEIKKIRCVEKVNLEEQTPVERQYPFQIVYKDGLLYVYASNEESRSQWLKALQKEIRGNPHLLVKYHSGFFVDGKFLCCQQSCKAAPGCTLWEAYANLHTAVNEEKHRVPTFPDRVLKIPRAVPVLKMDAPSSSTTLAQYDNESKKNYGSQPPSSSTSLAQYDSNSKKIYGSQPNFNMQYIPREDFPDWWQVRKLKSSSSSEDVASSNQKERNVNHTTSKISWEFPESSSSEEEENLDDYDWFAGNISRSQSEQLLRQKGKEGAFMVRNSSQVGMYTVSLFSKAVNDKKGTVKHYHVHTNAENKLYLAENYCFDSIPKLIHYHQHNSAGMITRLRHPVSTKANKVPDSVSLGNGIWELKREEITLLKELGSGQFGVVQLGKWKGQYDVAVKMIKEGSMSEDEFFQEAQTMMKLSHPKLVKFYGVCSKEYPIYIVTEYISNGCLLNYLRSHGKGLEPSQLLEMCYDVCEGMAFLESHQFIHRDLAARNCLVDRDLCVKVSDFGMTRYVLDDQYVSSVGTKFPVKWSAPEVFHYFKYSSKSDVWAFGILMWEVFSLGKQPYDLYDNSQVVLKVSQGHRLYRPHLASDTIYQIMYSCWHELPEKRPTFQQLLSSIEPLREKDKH", "assay": "Inhibition of human BMX at 1.82 nM by HotSpot assay relative to control"}, "[13]": {"target": "T3, Cyclin-dependent kinase 5/CDK5 activator 1 (Homo sapiens) (UniProt Q00535+Q15078)", "T3 sequence (Q00535 whole entry)": "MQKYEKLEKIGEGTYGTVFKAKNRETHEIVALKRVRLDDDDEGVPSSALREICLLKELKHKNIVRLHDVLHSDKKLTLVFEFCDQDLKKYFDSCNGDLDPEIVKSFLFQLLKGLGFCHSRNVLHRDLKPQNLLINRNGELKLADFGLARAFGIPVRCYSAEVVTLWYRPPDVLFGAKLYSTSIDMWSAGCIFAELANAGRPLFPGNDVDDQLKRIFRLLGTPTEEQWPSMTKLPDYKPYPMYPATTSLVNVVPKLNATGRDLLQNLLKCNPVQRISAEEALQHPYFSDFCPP", "T3 sequence (Q15078 99-307 partner limits assumed)": "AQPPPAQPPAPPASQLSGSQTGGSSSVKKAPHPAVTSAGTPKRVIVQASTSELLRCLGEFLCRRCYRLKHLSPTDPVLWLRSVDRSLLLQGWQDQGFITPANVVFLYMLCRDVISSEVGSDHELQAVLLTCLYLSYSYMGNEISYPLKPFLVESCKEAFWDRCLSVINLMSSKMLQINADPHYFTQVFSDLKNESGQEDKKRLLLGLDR", "assay": "Inhibition of human CDK5/p25 at 1.82 nM by HotSpot assay relative to control", "assay_type": "protein-complex assay"}, "[14]": {"target": "RAC-beta serine/threonine-protein kinase (Homo sapiens) (UniProt P31751)", "assay": "Inhibition of human AKT2 at 1.82 nM by HotSpot assay relative to control"}, "[15]": {"target": "CDK9/cyclin T1 (Homo sapiens) (UniProt O60563+P50750)", "assay": "Inhibition of human CDK9/cyclin T1 at 1.82 nM by HotSpot assay relative to control", "assay_type": "protein-complex assay"}, "[16]": {"target": "Interleukin-1 receptor-associated kinase 1 (Homo sapiens) (UniProt P51617)", "sequence (P51617 whole entry, looked up)": "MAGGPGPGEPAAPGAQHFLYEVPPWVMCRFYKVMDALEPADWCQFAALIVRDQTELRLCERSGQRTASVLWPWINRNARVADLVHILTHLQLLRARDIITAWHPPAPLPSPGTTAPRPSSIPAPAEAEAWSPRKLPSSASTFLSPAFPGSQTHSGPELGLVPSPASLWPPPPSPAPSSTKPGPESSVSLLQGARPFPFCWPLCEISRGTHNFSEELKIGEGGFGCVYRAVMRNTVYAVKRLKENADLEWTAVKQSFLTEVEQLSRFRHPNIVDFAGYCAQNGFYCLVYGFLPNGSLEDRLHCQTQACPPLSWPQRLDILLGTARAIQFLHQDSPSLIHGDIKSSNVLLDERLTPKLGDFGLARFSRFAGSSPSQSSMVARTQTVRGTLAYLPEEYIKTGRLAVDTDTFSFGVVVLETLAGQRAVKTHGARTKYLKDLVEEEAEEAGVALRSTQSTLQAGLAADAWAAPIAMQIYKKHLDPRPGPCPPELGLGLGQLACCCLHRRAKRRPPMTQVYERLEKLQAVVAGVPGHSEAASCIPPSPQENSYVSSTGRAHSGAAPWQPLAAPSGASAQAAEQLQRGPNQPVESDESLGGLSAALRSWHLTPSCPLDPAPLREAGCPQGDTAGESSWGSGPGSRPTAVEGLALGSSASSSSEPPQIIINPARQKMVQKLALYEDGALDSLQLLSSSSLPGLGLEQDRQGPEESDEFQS", "assay": "Inhibition of human IRAK1 at 1.82 nM by HotSpot assay relative to control"}, "[17]": {"target": "T3, Cyclin-dependent kinase 5/CDK5 activator 1 (Homo sapiens)", "assay": "Inhibition of human CDK5/p35 at 1.82 nM by HotSpot assay relative to control", "assay_type": "protein-complex assay"}, "[18]": {"target": "Calcium/calmodulin-dependent protein kinase type II subunit delta (Homo sapiens) (UniProt Q13557)", "sequence (Q13557 whole entry)": "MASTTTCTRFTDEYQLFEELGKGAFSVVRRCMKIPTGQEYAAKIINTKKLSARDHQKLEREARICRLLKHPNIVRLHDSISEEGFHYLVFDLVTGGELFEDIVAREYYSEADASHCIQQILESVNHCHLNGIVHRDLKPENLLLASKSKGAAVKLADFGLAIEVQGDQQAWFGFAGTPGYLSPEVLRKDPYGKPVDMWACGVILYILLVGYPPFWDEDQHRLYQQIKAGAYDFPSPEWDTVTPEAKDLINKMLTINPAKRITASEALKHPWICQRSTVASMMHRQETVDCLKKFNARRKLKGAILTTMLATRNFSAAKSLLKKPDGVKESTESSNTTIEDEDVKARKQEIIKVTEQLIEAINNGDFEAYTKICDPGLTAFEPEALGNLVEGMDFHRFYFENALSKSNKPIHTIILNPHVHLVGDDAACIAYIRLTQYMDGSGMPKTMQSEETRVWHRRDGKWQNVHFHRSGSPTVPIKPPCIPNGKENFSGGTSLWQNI", "assay": "Inhibition of human CAMK2d at 1.82 nM by HotSpot assay relative to control"}}, "note": "Activity calls are given as the source filed them. The rule behind the calls is not given here."}
{"smiles": "Oc1n[nH]c2nnc(-c3c(-c4ccccc4)nn4ccccc34)cc12", "values": [{"measurement": "inhibition", "setting": "[1]", "result": "inactive"}]}
{"smiles": "C[C@]1(O)C[C@@H](c2nc(-c3ccc4ccc(-c5ccccc5)nc4c3)c3c(N)nccn32)C1", "values": [{"measurement": "inhibition", "setting": "[2]", "result": -3.85, "unit": "%"}, {"measurement": "inhibition", "setting": "[3]", "result": -2.25, "unit": "%"}, {"measurement": "inhibition", "setting": "[4]", "result": -4.64, "unit": "%"}, {"measurement": "inhibition", "setting": "[5]", "result": -3.04, "unit": "%"}, {"measurement": "inhibition", "setting": "[6]", "result": -2.23, "unit": "%"}, {"measurement": "inhibition", "setting": "[7]", "result": -5.1, "unit": "%"}, {"measurement": "inhibition", "setting": "[8]", "result": -0.58, "unit": "%"}]}
{"smiles": "C[C@@]1(C(=O)Nc2ccc(F)nc2)CCCN1c1nc(Nc2cc(C3CC3)n[nH]2)c2cccn2n1", "values": [{"measurement": "inhibition", "setting": "[9]", "result": 4.47, "unit": "%"}, {"measurement": "inhibition", "setting": "[10]", "result": -2.03, "unit": "%"}, {"measurement": "inhibition", "setting": "[11]", "result": -5.95, "unit": "%"}, {"measurement": "inhibition", "setting": "[12]", "result": -1.37, "unit": "%"}, {"measurement": "inhibition", "setting": "[13]", "result": 2.17, "unit": "%"}, {"measurement": "inhibition", "setting": "[14]", "result": -0.4, "unit": "%"}, {"measurement": "inhibition", "setting": "[15]", "result": 1.5, "unit": "%"}, {"measurement": "inhibition", "setting": "[16]", "result": -7.77, "unit": "%"}, {"measurement": "inhibition", "setting": "[17]", "result": 1.01, "unit": "%"}, {"measurement": "inhibition", "setting": "[18]", "result": -2.72, "unit": "%"}]}
